{"source": "patent US10981911B2", "about": "“Imidazopyrrolopyridine as inhibitors of the JAK family of kinases” (Janssen Pharmaceutica NV, priority 2016, dated 2021)", "key": {"JAK1-JH1JH2": {"biological_target": "JAK1-JH1JH2 (Homo sapiens (Human), UniProt P23458)", "sequence (P23458 574-1154)": "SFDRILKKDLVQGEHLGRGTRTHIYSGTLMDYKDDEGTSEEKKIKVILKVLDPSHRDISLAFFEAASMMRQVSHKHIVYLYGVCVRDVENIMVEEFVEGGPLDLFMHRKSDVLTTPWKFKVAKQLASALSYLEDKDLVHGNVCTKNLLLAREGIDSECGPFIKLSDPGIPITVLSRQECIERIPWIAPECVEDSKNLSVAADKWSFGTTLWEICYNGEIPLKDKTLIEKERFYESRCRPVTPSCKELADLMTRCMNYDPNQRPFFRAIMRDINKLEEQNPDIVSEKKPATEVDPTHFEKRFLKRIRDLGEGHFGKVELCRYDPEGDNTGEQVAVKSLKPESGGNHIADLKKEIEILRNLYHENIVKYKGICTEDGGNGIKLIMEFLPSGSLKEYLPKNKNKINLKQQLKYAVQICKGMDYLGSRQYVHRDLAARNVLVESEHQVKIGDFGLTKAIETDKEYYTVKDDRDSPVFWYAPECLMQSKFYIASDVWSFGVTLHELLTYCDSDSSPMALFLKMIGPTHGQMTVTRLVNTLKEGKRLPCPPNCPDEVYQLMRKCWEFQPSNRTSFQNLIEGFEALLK", "experiment": "Enzymatic inhibition assay (RapidFire HTMS), JAK1", "format": "biochemical", "details": "12.5 μM ATP, 200 μM substrate; read-out: JAK1-JH2JH1 IC50", "in_short": "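Quenched with 0.5% TFA plus internal-standard peptide; phosphorylated product quantified by RapidFire C4 SPE–ESI-MS, 11-point 1:3 or 1:4 dilutions in duplicate.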"}, "MDCK-MDR1 cell line": {"test_system": "MDCK-MDR1 cell line", "experiment": "MDCK-MDR1 permeability assay", "format": "in vitro ADME", "details": "@ 5 μM, apical to basolateral, with P-gp inhibitor elacridar (2 μM)", "in_short": "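MDCK-MDR1 monolayers (passage 6-30, day 4) dosed at 5 μM in HBSS pH 7.4, A-B with or without 2 μM elacridar, and B-A, 60 min at 37° C. LC/MS/MS quantitation; Papp=(dQ/dt)/(C0×S), efflux ratio = Papp(B-A)/Papp(A-B).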"}}}
{"smiles": "CC(C)(O)CNC(=O)Cc1nc2cnc3[nH]ccc3c2n1[C@H]1CC[C@H](CC#N)CC1", "note": "[Ex. 1, 2-(1-((1r,4r)-4-(Cyanomethyl)cyclohexyl)-1,6-dihydroimidazo[4,5-d]pyrrolo[2,3-b]pyridin-2-yl)-N-(2-hydroxy-2-methylpropyl)acetamide]", "values": [{"measurement": "IC50", "setting": "JAK1-JH1JH2", "result": 0.3, "unit": "nM"}]}
{"smiles": "N#CC[C@H]1CC[C@H](n2c(CC(=O)NC3CCOCC3)nc3cnc4[nH]ccc4c32)CC1", "note": "[Ex. 5, 2-(1-((1r,4r)-4-(Cyanomethyl)cyclohexyl)-1,6-dihydroimidazo[4,5-d]pyrrolo[2,3-b]pyridin-2-yl)-N-(tetrahydro-2H-pyran-4-yl)acetamide]", "values": [{"measurement": "MDCK-MDR1 P^eapp(A-B)", "setting": "MDCK-MDR1 cell line", "result": "0.5 10^−6 cm/sec"}]}
{"smiles": "CC(C)(C#N)CNC(=O)Cc1nc2cnc3[nH]ccc3c2n1[C@H]1CC[C@H](CC#N)CC1", "note": "[Ex. 22, N-(2-Cyano-2-methylpropyl)-2-(1-((1r,4r)-4-(cyanomethyl)cyclohexyl)-1,6-dihydroimidazo[4,5-d]pyrrolo[2,3-b]pyridin-2-yl)acetamide]", "values": [{"measurement": "IC50", "setting": "JAK1-JH1JH2", "result": 0.1, "unit": "nM"}]}
{"smiles": "N#CC[C@H]1CC[C@H](n2c(CC(=O)NCC3(O)CCC3)nc3cnc4[nH]ccc4c32)CC1", "note": "[Ex. 34, 2-(1-((1r,4r)-4-(Cyanomethyl)cyclohexyl)-1,6-dihydroimidazo[4,5-d]pyrrolo[2,3-b]pyridin-2-yl)-N-((1-hydroxycyclobutyl)methyl)acetamide]", "values": [{"measurement": "IC50", "setting": "JAK1-JH1JH2", "result": 0.2, "unit": "nM"}]}
{"smiles": "N#CCC12CCC(NC(=O)Cc3nc4cnc5[nH]ccc5c4n3[C@H]3CC[C@H](CC#N)CC3)(CC1)C2", "note": "[Ex. 55, N-(4-(Cyanomethyl)bicyclo[2.2.1]heptan-1-yl)-2-(1-((1r,4r)-4-(cyanomethyl)cyclohexyl)-1,6-dihydroimidazo[4,5-d]pyrrolo[2,3-b]pyridin-2-yl)acetamide]", "values": [{"measurement": "IC50", "setting": "JAK1-JH1JH2", "result": 0.2, "unit": "nM"}]}
{"smiles": "N#CC[C@H]1CC[C@H](n2c(CC(=O)NCC3(O)CC3)nc3cnc4[nH]ccc4c32)CC1", "note": "[Ex. 85, 2-(1-((1r,4r)-4-(Cyanomethyl)cyclohexyl)-1,6-dihydroimidazo[4,5-d]pyrrolo[2,3-b]pyridin-2-yl)-N-((1-hydroxycyclopropyl)methyl)acetamide]", "values": [{"measurement": "IC50", "setting": "JAK1-JH1JH2", "result": 0.4, "unit": "nM"}]}
